Test results: patent publication US20240216412A1, “OXIDIZED NICOTINAMIDE ADENINE DINUCLEOTIDE (NAD+) PRECURSOR TREATMENT FOR HEART FAILURE ALLEVIATION INDEPENDENT OF MITOCHONDRIAL PROTEIN DEACETYLATION” (University of Washington, priority 2022, published 2024)

How the values were obtained:
[1] = tested on: WT TAC heart transcriptome; assay: RNA sequencing with GSEA of TAC hearts; format: in vivo, mouse; settings: NR treated TAC hearts vs vehicle
Method: RNA Sequencing. Total RNA was extracted from 30 mg of heart tissue using the Qiagen RNeasy kit. RNA Sequencing and quality control was performed BGI (BGISEQ-500). Data Analysis-RNAseq samples were aligned using Tophat (Trapnell et al., 2009) (version 2.0.13). Genelevel read counts were quantified using htseq-count (Anders et al., 2015). Genes expressed above 4TPM in at least 2 samples were used. In differential expression (DESeq), A gene to have total normalized reads above 10 across all samples. DeSeq (Anders and Huber, 2010) was used for differential gene expression analysis. Genes with fold change >1.5 and FDR <0.1 were considered differentially expressed. GSEA was performed using Broad Institute software against the Reactome database. Iregulon v1.3 was used to predict transcription factor binding motif. The following options were used: Motif collection 10 K (9713 PWMs), putative regulatory region 20 kb centered around TSS (7 species). Program default settings for Recovery and Transcription factor prediction options were selected for the analysis.

RXRα = assay: Chromatin immunoprecipitation (ChIP) of RXRα at the Acadm promoter PPRE; format: in vivo; settings: ISO mouse hearts, NR
Method: Chromatin immunoprecipitation (ChIP). The EZ ChIP kit (EMD Millipore catalog #17-371) was used according to the manufacturer's protocol. Briefly, heart tissue was cut into small pieces using a razor blade in a petri dish on ice. The cubed tissue was incubated in fixation solution (1% formaldehye) in a conical tube and rotated at room temperature for 15 minutes to crosslink proteins and chromatin. The reaction was stopped by adding 0.125M Glycine for 5 min at room temperature. The contents were homogenized with a hand-held tissue homogenizer for 45 seconds then pelleted by centrifugation for 3 minutes at 1,250×g at 4C. The supernatant was discarded and the pellet was resuspended in 10 ml ice-cold PBS wash buffer followed by centrifugation at 1,250×g for 3 minutes. This was wash step was repeated on ice. The supernatant was discarded and the pellet resuspended in 5 ml chromatin prep buffer and incubated on ice for 10 minutes. The resuspended pellet was homogenized on ice with a dounce homogenizer for 30 strokes and then contents transferred to new conical tube on ice. The suspension was centrifuged 3 minutes at 1,250×g at 4C then supernatant discarded. The pellet was resuspended in 1 ml Chip buffer and transferred to new centrifuge tube then incubated on ice for 10 minutes. […] Purified chromatin was analyzed on a 1% agarose gel to determine the shearing efficiency. […]

[2] = tested on: mitochondrial protein acetylation; Mrpp2, mt-Cox1, mt-Nd1 protein levels; assay: Western blot of cardiac mitochondrial protein acetylation and of Mrpp2, mt-Cox1, mt-Nd1; format: in vivo, mouse
Method: Western blot. For Western blot procedures cardiac tissues were homogenized with RIPA buffer (ThermoScientific Pierce RIPA Buffer #89900) and protease inhibitors (Roche Cat. No. 11-836-170-001) using bullet blender at 4° C. for 10 minutes. Protein concentrations of supernatants were collected after centrifugation and quantified using Pierce™ BCA® Protein Assay Kits and Reagents (#23225). Protein lysates in Lammeli sample buffer were loaded to 10% SDS-PAGE, transferred to PVDF membrane and blocked with 5% BSA in TSBT. Specific proteins were detected by specific antibodies listed above and corresponding secondary antibodies. Signals were visualized by HRP derived chemiluminescence (Amersham ECL Western Blotting Detection System #RPN2106) and film. Protein levels were quantified by Image-J.
Mitochondrial Isolation from cardiac tissue. Hearts were excised from mice, the aortas and atria were removed. Heart tissues were rinsed briefly in ice-cold mitochondria isolation medium (MIM) (70 mM sucrose, 220 mM mannitol, 5 mM MOPS, 1 mM EDTA, 0.025% fatty acid-free BSA, pH 7.4 with 5M KOH) to remove residual blood. Tissues were minced on ice and resuspended in fresh MIM, followed by trypsin digestion (10 ug/ml) and incubated on ice for 10 min. Trypsin digestion was stopped by the addition of trypsin inhibitor (0.5 mg/ml) and additional BSA (1 mg/ml) to MIM. The tissue pellets were resuspended in fresh MIM containing 1 mg/ml BSA, and transferred to a Teflon-glass tube and homogenized on ice with a Teflon pestle. The homogenates were centrifuged for 10 min at 800×g at 4° C. The supernatants were collected and centrifuged for 10 min at 8,000×g at 4° C. The supernatant was discarded and the mitochondrial pellets were resuspended in MIM to wash. The resuspension was centrifuged for 10 min at 8,000×g at 4° C., and the supernatant discarded. The mitochondrial pellet was resuspended to a concentrated volume for protein quantification by BCA Assay (Pierce).
Antibodies. Acetylated lysine antibody (Cell Signaling 9441s), Mrpp2 (Hsd17b10, ERAB) from Proteintech catalog number 10648-1-AP, Mrrp1 (Trmt10c) from Proteintech catalog number 29087-1-AP, Mt-C01 from Abcam [1D6E1A8] (ab14705), and Mt-Nd1 from Santa Cruz (C-18) catalog sc-20493, RXRα (Cell Signaling D6H10) Rabbit mAb, SirT3 (Cell Signaling D22A3) Rabbit mAb, ATP5B (E-1) Santa Cruz Biotechnology sc-55597.

NC(=O)c1ccc[n+]([C@@H]2O[C@H](CO)[C@@H](O)[C@H]2O)c1 [NR, Nicotinamide riboside chloride]
Pathways of genes significantly downregulated (GSEA) [1]: enriched in pathways relating to collagen formation and extracellular matrix organization | Pathways of genes significantly upregulated (GSEA) [1]: enriched in pathways relating to mitochondrial metabolism | Binding occupancy of RXRα to the PPARα response element (PPRE) in the Acadm promoter (RXRα): increased | Mitochondrial protein acetylation ([2]; NR treated Sirt3Ko mice): no change | Mrpp2 protein level ([2]; NR treated TAC hearts): normalization | Protein levels of mt-Cox1 and mt-Nd1 ([2]; TAC hearts that received NR): preserved | Mitochondrial protein hyperacetylation ([2]; WT control mice after TAC): reversed the protein hyperacetylation
